The text below walks through data of patent publication US20180228775A1, “METHODS OF TREATING CANCER” (Dana-Farber Cancer Institute, Inc., priority 2014, published 2018).

The test system of assay [1] is GM-CSF treated human monocytes. Put plainly: CCL17 and CCL22 expression by GM-CSF treated human monocytes (ELISA). The assay is classed as cell-based. The note with it: human monocytes with GM-CSF. Here is the method: CCL17 levels were normalized to the number of monocytes per well.
FIG. 43: Role of PPAR-g in restraining Treg recruitment and expansion is conserved in GM-CSF treated human monocytes.
CCL17 levels were measured using ELISA (DY364, R&D Systems).
In addition, these cultures were treated with DMSO or Rosi.

The test system of assay [2] is human PBMC. Put plainly: Culture of human PBMC with GM-CSF (K562-GM) and PPAR-γ modulators: Treg numbers. The assay is classed as cell-based.

Consider `O=C(Nc1ccncc1)c1cc([N+](=O)[O-])ccc1Cl` [T0070907], for which the CCL22 expression result in assay [1] is listed as “increasing”. Further, in assay [1] (10 uM Rosi, 5 days, ELISA), the CCL17 expression entry was “increasing”. Further, the “Treg number / GM-CSF induced Treg expansion” value in assay [2] (human PBMC with GM-CSF (K562-GM), 10 uM Rosi or T0070907 luM every 48 hours, day 4-6) was “increase”.
Consider `CN(CCOc1ccc(CC2SC(=O)NC2=O)cc1)c1ccccn1` (stereo not shown) [Rosi, rosiglitazone], for which the Treg number result in assay [2] (non-GM-CSF treated cultures (K562-WT)) is given as “no effect”.
